Calls of active or inactive are those of the source. No cut-off for these calls is given here.
Columns and labels:
[1] = target: T1, Amine oxidase [flavin-containing] B (Homo sapiens, UniProt P27338); settings: 0.5 h, time 30 min
T1 sequence (P27338 whole entry): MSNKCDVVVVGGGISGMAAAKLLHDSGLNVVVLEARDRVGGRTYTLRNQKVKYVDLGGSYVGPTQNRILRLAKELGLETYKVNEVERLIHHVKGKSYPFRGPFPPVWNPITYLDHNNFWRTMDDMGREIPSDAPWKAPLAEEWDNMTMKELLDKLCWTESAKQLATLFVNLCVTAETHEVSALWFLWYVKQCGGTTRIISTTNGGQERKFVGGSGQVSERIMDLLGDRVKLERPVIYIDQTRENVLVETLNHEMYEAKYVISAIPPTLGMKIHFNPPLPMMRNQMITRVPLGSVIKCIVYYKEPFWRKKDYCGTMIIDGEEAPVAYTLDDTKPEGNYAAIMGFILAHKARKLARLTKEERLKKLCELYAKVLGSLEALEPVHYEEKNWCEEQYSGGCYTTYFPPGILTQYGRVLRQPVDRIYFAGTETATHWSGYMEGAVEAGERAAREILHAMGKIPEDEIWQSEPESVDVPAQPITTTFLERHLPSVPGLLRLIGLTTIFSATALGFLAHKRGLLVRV

Rattus norvegicus = assay: Antialzheimer activity against scopolamine-induced cognitive impairment in Sprague-Dawley rat assessed as reduction in short-term memory deficits at 1 to 3 mg/kg, ip administered for 30 mins followed by scopolamine induction measured after 30 mins by NOR test; assay type: functional, organism-based; settings: dose 1-3 mg/kg, time 60.0 min

Structure (SMILES) | inhibition at 1 µM [1] [%] | Activity (Rattus norvegicus)
Clc1cccc(CNc2ccnc(N3CCNCC3)c2)c1 | 3 | –
COc1cc2c(cc1OC)C(=O)C(CC1CCN(Cc3ccccc3)CC1)C2 (stereo not drawn) | – | Active
Clc1cccc(CNc2cc(N3CCNCC3)nc3ccccc23)c1 | 7 | –

From ChEMBL document CHEMBL5370607 (J Med Chem, 2023)
